pIC50: −log10 of the molar value.
Experiments:
Homo sapiens = species: Homo sapiens; experiment: Potency index, ratio of acarbose IC50 to compound IC50 for alpha-glucosidase (unknown origin)
[1] = Inhibition of alpha-glucosidase (unknown origin) assessed as reduction in PNP release using PNPG as substrate preincubated for 10 mins followed by substrate addition measured after 40 mins by spectrophotometric method; parameters: species or system Homo sapiens

Ratio IC50 (Homo sapiens)	pIC50 [1]	SMILES
70	5.04	CC(=O)O[C@H]1C=C(CO)C(=O)[C@H](O)[C@H]1O
–	3.18	C[C@H]1O[C@H](O[C@H]2[C@H](O)[C@@H](O)[C@@H](O[C@H]3[C@H](O)[C@@H](O)C(O)O[C@@H]3CO)O[C@@H]2CO)[C@H](O)[C@@H](O)[C@@H]1N[C@H]1C=C(CO)[C@@H](O)[C@H](O)[C@H]1O (stereo partly drawn) [ACARBOSE]
